Experimental data published in patent US10174016B2 (BAYER AKTIENGESELLSCHAFT, priority 2014, dated 2019).
Read-outs that look alike come from different tables or passages of the source.

Key:
CYP1A2 = CYP1A2 (Homo sapiens (Human), UniProt P05177); experiment: CYP inhibition assay, CYP1A2
Experimental: (§1) Method Description CYP Inhibition Assay
(§2) Data analysis: The CYP-mediated activities in the presence of inhibitors were expressed as percentages of the corresponding control values. A sigmoid-shaped curve was fitted to the data, and the enzyme inhibition parameter IC50 was calculated using a nonlinear least-squares regression analysis of the plot of percent control activity versus concentration of the test inhibitor.

CYP3A4 [1] = target: T1, CYP3A4 (Homo sapiens (Human), UniProt P08684); experiment: Pre-incubation CYP inhibition assay, CYP3A4 (time dependent inhibition); format: in vitro ADME; conditions: human liver microsomes, probe midazolam, 30 min pre-incubation; read-out: CYP3A4 with preincubation IC50
From the text: as §1

rat hepatocytes = experiment: In vitro metabolic stability in rat hepatocytes; format: in vitro ADME, Han Wistar rats; conditions: 1 μM, 1.0×10^6 cells/mL, maximal oral bioavailability calculated from half-life
Experimental: Determination of in vitro metabolic stability in rat hepatocytes (including calculation of hepatic in vivo blood clearance (CL))
Hepatocytes from Han Wistar rats were isolated via a 2-step perfusion method. After perfusion, the liver was carefully removed from the rat: the liver capsule was opened and the hepatocytes were gently shaken out into a Petri dish with ice-cold Williams' medium E (WME). The resulting cell suspension was filtered through sterile gaze in 50 mL falcon tubes and centrifuged at 50×g for 3 min at room temperature. The cell pellet was resuspended in 30 mL WME and centrifuged through a Percoll® gradient for 2 times at 100×g. The hepatocytes were washed again with WME and resuspended in medium containing 5% FCS. Cell viability was determined by trypan blue exclusion.
The test compound was added to a final concentration of 1 μM. […] Samples were frozen at −20° C. overnight, subsequently centrifuged for 15 minutes at 3000 rpm and the supernatant was analyzed with an Agilent 1200 HPLC-system with LCMS/MS detection.
(§3) The half-life of a test compound was determined from the concentration-time plot. From the half-life (kel: slope of concentration-time plot; half-life=ln 2/kel) the intrinsic clearances were calculated. Together with the additional parameters liver blood flow, amount of liver cells in vivo and in vitro.
(§4) Metabolic instability is often the main clearance mechanism of xenobiotica leading to a high CL and low bioavailability which may eventually result in a short half-life and a low exposure after oral administration. Thus, reducing the susceptibility of metabolic degradation usually leads to a more favourable pharmacokinetic profile. When using liver microsomes as incubation matrix main phase I metabolic reactions, typically oxidoreductive reactions by cytochrome P450 enzymes and flavin mono-oxygenases (FMO) and hydrolytic reactions by esterases/amidases/epoxidhydrolases, are described. When the incubation of the test compound is performed in a hepatocyte matrix all potential hepatic metabolic processes (phase I and phase II) are covered.

CYP2C8 = CYP2C8 (Homo sapiens (Human), UniProt P10632); experiment: CYP inhibition assay, CYP2C8; format: in vitro ADME; conditions: human liver microsomes, probe amodiquine
Experimental: as §1, §2

CYP2D6 = CYP2D6 (Homo sapiens (Human), UniProt P10635); experiment: CYP inhibition assay, CYP2D6; format: in vitro ADME; conditions: human liver microsomes, probe dextromethorphan
Experimental: as §1, §2

[2] = In vitro metabolic stability in liver microsomes (calculation of CL and Fmax); format: in vitro ADME, human; conditions: 1 μM, 0.5 mg/mL protein, maximal oral bioavailability calculated from half-life
Experimental: In Vitro Metabolic Stability Assays Determination of in vitro metabolic stability in microsomes (including calculation of hepatic in vivo blood clearance (CL) and of maximal oral bioavailability (Fmax))
The metabolic assay was started shortly afterwards by adding the test compound to the incubation at a final volume of 1 mL. Organic solvent in the incubations was limited to […] dimethylsulfoxide (DMSO) and ≤1% acetonitrile. […] Samples were frozen at −20° C. overnight, subsequently centrifuged for 15 minutes at 3000 rpm and the supernatant was analyzed with an Agilent 1200 HPLC-system with LCMS/MS detection.
as §3, with “specific” for “amount of”, “weight and microsomal protein content the hepatic” for “cells”, “vivo blood clearance (CL)” for “vivo”, “the maximal oral bioavailability (Fmax) were calculated for the different species.” for “in vitro.”
as §4

CYP2C9 = CYP2C9 (Homo sapiens (Human), UniProt P11712); experiment: CYP inhibition assay, CYP2C9; format: in vitro ADME; conditions: human liver microsomes, probe diclofenac
Experimental: as §1, §2

CYP3A4 [3] = target: T1, CYP3A4; experiment: CYP inhibition assay, CYP3A4; format: in vitro ADME; conditions: human liver microsomes, probe midazolam
Experimental: as §1, §2

vaginal hyperalgesia = experiment: Rat dyspareunia model (visceromotor response to vaginal distension); format: in vivo, female Sprague Dawley rats
From the text: The visceromotor response (VMR) to vaginal distension was used in conscious animals as an objective measure of vaginal sensitivity. […] To measure VMR response, 2 Teflon-coated wire electrodes were sutured in the external oblique abdominal muscle, and tunneled subcutaneously to be exteriorized at the base of the neck for future access. On the day of VMR assessment, a lubricated small balloon (1 cm length) was inserted into the mid-vaginal canal. The balloon catheter was secured to the base of the tail and connected to a volume controller/timing device (infusion pump) for balloon distension. The vaginal balloon was inflated to ramp intensities of distension (0.05 ml increments every 20 sec.) to a maximal volume of 0.8 ml. The electrodes were connected to an amplifier (Animal Bio Amp, ADInstrunnents), and the abdominal electromyographic signal was recorded using a data acquisition system (PowerLab, ADInstrunnents) for off-line analysis using LabChart version 7. The number of abdominal muscle contractions was counted manually for each 0.1 ml distension step, as an index of vaginal pain. […] All data were expressed as mean±standard deviation (s.d.), for the number (n) of measured rats per group. […] Planned comparison of means (matched-volume versus vehicle) was performed using a Bonferroni post hoc test, provided that a main effect was detected. […]

[4] = Human liver cytosol stability assay; format: in vitro ADME; conditions: human liver cytosol 1 mg/mL, 1 or 10 μM, 37° C.
Experimental: Human Liver Cytosol Stability Assay
Method description: Human liver cytosol (pooled, >30 male and female donors) was incubated with individual test compounds in order to compare the extent of depletion of test compound and formation of the respective oxidised metabolite. […] An incubation volume of 1000 μL was used. The test compound was added from a stock solution in acetonitrile at 1 or 10 μM concentration in the incubation. Incubations were performed at 37° C. Reactions were stopped at 0 h and 4 h after incubation by addition of 100 μL acetonitrile to 250 μL of incubation mixture. Precipitated proteins were removed by centrifugation at approximately 3000 rpm. The supernatants were stored at approximately −20° C. until they were analysed. […]
Data analysis: The depletion of the test compound and formation of the corresponding metabolites were determined by decrease or increase of the corresponding peak area in the chromatogram after UV detection at approximately 300 nm 4 h after incubation compared to that at 0 h after incubation. […]

[5] = tested on: CFA-induced mechanical hyperalgesia; experiment: Mouse CFA in vivo model (von Frey filaments); parameters: species or system Female C57BL/6 mice; conditions: 25 mg/kg p.o. b.i.d., 72 hrs after CFA-injection
Experimental: Mouse CFA In Vivo Model […] Mechanical hyperalgesia was measured using von Frey filaments. Briefly, von Frey filaments were being used to stimulate the animal's hindpaw and a behavioural response was measured depending on the strength of the von Frey filament used. The strength of the filament was expressed in [g] and the threshold was recorded when a response of the animal was observed. Both CFA-injected and contralateral response thresholds were determined for each mouse and in each treatment group 72 hrs after CFA-injection. Compound application was done p.o. b.i.d., starting one hour before CFA injection. Data were expressed as the mean threshold for each treatment group. Data were analysed by performing a one way ANOVA over the different dose groups. Planned comparison of means (each versus vehicle) was performed by using a Dunnett's post hoc test, provided that a main effect was detected.

[6] = tested on: CFA-induced mechanical hyperalgesia; experiment: Rat CFA in vivo model (mechanical hyperalgesia, paw withdrawal threshold); parameters: species or system Male Sprague Dawley rats; conditions: 3 mg/kg p.o., dosed 24 hours after CFA injection
Experimental: Rat CFA In Vivo Model Male Sprague Dawley rats were used. Mechanical hyperalgesia was induced by injecting 25 μl of Complete Freund's Adjuvant (CFA) into the plantar surface of one hind paw. Mechanical hyperalgesia was measured using the Pressure Application Measurement apparatus (Ugo Basile, Gemonio, Italy). Briefly, a linearly increasing pressure was applied to an area of ˜50 mm2 of the plantar side of the hind paw until a behavioural response (paw withdrawal) was observed or until the pressure reached 1000 gf. The pressure at which the behavioural response occurred was recorded as the “Paw Withdrawal Threshold” (PWT). Both CFA-injected and contralateral PWTs were determined for each rat, in each treatment group and at each time point of the studies. […] Compounds were dosed 24 hours after CFA injection. Data were expressed as the mean PWT for each treatment group and at each time point. Data were analysed by performing a repeated measures two way ANOVA (time×treatment). Planned comparison of means (each versus vehicle) was performed by using a Dunnett's post hoc test, provided that a main effect was detected. […] More preferred examples of the present invention show rat CFA in vivo efficacy in the ‘Paw withdrawal threshold 6 hours post drug’ measure when dosed at 3 mg/kg p.o.

[7] = In vivo pharmacokinetics in dogs; conditions: Beagle, plasma, dog

T1 sequence (P08684 whole entry): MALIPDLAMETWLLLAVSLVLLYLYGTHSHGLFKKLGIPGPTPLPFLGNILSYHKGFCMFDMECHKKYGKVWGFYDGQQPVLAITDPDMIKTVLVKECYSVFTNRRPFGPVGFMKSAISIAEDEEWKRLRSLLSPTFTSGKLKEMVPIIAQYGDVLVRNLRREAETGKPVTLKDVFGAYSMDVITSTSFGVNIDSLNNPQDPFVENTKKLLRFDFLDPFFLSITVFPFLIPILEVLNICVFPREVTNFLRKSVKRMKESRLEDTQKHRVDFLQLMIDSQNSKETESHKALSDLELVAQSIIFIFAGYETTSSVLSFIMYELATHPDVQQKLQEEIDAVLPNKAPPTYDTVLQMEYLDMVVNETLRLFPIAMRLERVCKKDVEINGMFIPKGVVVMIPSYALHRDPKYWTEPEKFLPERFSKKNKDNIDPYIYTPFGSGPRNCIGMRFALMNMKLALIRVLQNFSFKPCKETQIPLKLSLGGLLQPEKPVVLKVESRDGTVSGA
Chain of CYP2C8 (P10632 whole entry): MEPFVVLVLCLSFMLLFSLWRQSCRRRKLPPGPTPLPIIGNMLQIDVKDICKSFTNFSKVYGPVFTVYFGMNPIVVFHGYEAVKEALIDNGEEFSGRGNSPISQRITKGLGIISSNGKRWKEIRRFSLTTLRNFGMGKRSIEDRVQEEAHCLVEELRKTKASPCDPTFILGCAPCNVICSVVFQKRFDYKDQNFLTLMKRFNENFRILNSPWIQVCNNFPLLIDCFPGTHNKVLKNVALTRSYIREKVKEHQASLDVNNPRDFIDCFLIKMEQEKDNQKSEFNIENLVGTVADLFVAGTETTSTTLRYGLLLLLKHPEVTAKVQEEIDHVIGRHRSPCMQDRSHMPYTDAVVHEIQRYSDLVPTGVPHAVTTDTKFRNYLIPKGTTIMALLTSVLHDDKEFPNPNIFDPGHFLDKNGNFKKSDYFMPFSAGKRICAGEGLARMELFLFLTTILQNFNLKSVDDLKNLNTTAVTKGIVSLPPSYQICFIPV
Chain of CYP2D6 (P10635 whole entry): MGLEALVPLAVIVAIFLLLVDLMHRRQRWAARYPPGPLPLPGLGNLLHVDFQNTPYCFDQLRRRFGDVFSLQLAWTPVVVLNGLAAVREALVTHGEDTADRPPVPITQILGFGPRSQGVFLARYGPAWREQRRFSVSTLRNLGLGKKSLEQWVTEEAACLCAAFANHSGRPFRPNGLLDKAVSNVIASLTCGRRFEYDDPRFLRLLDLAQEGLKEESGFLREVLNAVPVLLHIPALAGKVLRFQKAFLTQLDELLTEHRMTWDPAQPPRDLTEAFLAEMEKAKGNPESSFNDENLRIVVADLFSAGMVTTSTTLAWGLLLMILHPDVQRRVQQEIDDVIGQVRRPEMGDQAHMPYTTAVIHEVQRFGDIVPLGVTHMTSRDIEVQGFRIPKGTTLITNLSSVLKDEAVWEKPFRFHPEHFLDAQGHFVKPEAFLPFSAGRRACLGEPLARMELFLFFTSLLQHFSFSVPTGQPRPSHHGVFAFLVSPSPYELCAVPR
Chain of CYP1A2 (P05177 whole entry): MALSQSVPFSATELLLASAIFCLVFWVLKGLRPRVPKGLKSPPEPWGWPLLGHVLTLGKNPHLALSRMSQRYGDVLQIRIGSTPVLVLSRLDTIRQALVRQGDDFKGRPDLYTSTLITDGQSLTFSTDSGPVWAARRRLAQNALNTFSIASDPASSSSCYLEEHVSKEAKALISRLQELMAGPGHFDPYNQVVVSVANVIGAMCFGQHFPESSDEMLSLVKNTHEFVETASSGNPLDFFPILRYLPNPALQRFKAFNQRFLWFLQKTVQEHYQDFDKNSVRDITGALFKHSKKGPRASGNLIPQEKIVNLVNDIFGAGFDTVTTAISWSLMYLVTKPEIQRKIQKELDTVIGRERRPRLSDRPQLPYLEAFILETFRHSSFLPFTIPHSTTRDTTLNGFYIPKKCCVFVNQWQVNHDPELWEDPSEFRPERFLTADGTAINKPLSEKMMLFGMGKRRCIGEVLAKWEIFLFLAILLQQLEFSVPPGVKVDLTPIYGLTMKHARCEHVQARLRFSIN
Chain of CYP2C9 (P11712 whole entry): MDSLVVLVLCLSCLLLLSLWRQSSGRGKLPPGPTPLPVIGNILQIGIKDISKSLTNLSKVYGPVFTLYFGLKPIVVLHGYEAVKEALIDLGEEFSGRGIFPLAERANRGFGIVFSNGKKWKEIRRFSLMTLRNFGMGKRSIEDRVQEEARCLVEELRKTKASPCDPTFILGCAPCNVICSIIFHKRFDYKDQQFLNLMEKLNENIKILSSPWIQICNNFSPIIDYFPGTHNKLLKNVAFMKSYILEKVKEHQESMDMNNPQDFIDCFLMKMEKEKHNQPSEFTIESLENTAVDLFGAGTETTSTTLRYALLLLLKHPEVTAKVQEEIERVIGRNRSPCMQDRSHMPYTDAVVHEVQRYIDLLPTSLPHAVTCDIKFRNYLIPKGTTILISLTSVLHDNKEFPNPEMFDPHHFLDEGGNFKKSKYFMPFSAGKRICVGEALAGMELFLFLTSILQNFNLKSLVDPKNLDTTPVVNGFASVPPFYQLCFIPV

| IC50 (CYP1A2) [µM] | IC50 (CYP3A4 [1]) [µM] | Rat hepatocyte Fmax (rat hepatocytes) [%] | IC50 (CYP2C8) [µM] | IC50 (CYP2D6) [µM] | Human liver microsome Fmax [2] [%] | IC50 (CYP2C9) [µM] | IC50 (CYP3A4 [3]) [µM] | Test compound turnover after 4 h [4] [%] | half-life ([7]; iv, 0.5 mg/kg i.v., read-out: Dog t½ i.v. (converted)) [h] | bioavailability ([7]; oral, 1 mg/kg p.o., 0.5 mg/kg i.v., read-out: Dog Bioavailability (BA)) [%] | half-life ([7]; po, 1 mg/kg p.o., read-out: Dog t½ p.o. (converted)) [h] | Structure (SMILES) | vaginal hyperalgesia compared to vehicle-treated animals (vaginal hyperalgesia; 15 mg/kg oral b.i.d. during 2 weeks) | AUC of cumulative number of abdominal contractions against vaginal distension volume (vaginal hyperalgesia; 15 mg/kg oral b.i.d. for 2 weeks, 6 weeks post-implantation (off-drug), mean ± s.d.) | Efficacy mouse CFA model (von Frey response threshold) [5] | Paw withdrawal threshold 6 hour-post drug [6] |
| --- | --- | --- | --- | --- | --- | --- | --- | --- | --- | --- | --- | --- | --- | --- | --- | --- |
| > 20 | > 20 | 53 | > 20 | > 20 | 100 | > 20 | > 20 | – | – | – | – | Cc1cnc(-c2cc(OC(C)C(C)O)cc(C(=O)N[C@H](C)c3cnc(C(F)(F)F)nc3)c2)s1 (single isomer, unassigned) [Example 163] | – | – | – | – |
| – | – | 52 | – | – | 57 | – | – | 12 | 8.8 | 70 | 12 | Cc1cnc(-c2cc(O[C@@H]3CCOC3)cc(C(=O)N[C@H](C)c3cnc(C(F)(F)F)nc3)c2)s1 [Example 11, 3-(5-Methyl-1,3-thiazol-2-yl)-5-[(3R)-tetrahydrofuran-3-yloxy]-N-{(1R)-1-[2-(trifluoromethyl)pyrimidin-5-yl]ethyl}benzamide] | decreased vaginal hyperalgesia | 1.64 ± 1.53 (17) | 0.682 g ± 0.122 (*) | 639 ± 48 gf (*) |
